Measured values: patent US11304974B2, “Nanosystems comprising silver and antibiotics and their use for the treatment of bacterial infections” (priority 2017, dated 2022)

How the values were obtained:
E. coli C93 BLEE+ [1] = assay: Agar diffusion antibiogram (Example 2); assay type: cell-based, Escherichia coli; conditions: concentration 50 μg/ml
Description: (§1) From the stock cultures, which were maintained at −80±5° C., revitalization of the strains (TSB, TSA and blood agar cultures, incubation at 37° C., 24 h) and preparation of working cultures (maintenance at 5° C.±3° C.) was carried out.
(§2) The study of microbial activity of the products was performed by the agar diffusion method (antibiograms). Preliminary experiments were performed to adjust the concentration of each strain to obtain a homogeneous field, and the appropriate culture medium (in this case, Mueller Hinton agar) was selected. Whenever possible, large Petri plates (diameter of 135 mm) were used, but when the halo was too large, several plates of 90 mm diameter were used to test all the products. […] Addition of 1-2 ml of the corresponding dilution to sterile Petri plates (depending on size) and then pouring Mueller Hinton agar, tempered to 45° C. Allowing the agar to solidify at room temperature and then practicing wells in which the products will be placed to be tested. • Preparing the test substances in the appropriate concentration (suspension of 1 mg/ml in sterile water and serial dilutions). Placing 50 μl of the chosen concentration in each well (a previous study was done to see which concentration provided the most appropriate halos in each strain). As a positive control Penicillin G (at the same concentration) was used. • Incubation of the plates at 3±1° C. for 24 hours. Then the inhibition halos observed in each well were measured and gathered in Table 4 below.

E. coli H24 BLEE+ [2] = assay: Agar diffusion antibiogram (Example 2); assay type: cell-based, Escherichia coli; conditions: concentration 50 μg/ml
Description: as §1, §2

E. coli W207 BLEE+ [3] = assay: Agar diffusion antibiogram (Example 2); assay type: cell-based, Escherichia coli; conditions: concentration 50 μg/ml
Description: as §1, §2

E. coli AC8 BLEE+ = assay: Agar diffusion antibiogram (Example 2); assay type: cell-based, Escherichia coli; conditions: concentration 50 μg/ml
Description: as §1, §2

Ps. aeruginosa MEXR [4] = assay: Agar diffusion antibiogram (Example 1); assay type: cell-based, Pseudomonas aeruginosa; conditions: by order of Table 1 Ps. aeruginosa MEXR; concentration 50 μg/ml
Description: as §1
(§3) The study of microbial activity of the products was performed by the agar diffusion method (antibiograms). Preliminary experiments were performed to adjust the concentration of each strain to obtain a homogeneous field, and select the appropriate culture medium (in this case, Mueller Hinton agar). Whenever possible, large Petri plates (135 mm diameter) were used, but when the halo was too large, several plates of 90 mm diameter were used to test all the products. […] Addition of 1-2 ml of the corresponding dilution to sterile Petri plates (depending on size) and then pouring Mueller Hinton agar, tempered to 45° C. Allowing the agar to solidify at room temperature and then practicing wells in which the products to be tested will be placed. • Preparing the test substances in the appropriate concentration (suspension of 1 mg/ml in sterile water and serial dilutions). Placing 50 μl of the chosen concentration in each well (a previous study was done to determine which concentration provided the most appropriate halos in each strain). As a positive control, Penicillin G (at the same concentration) was used. • Incubation of the plates at 37±1° C. for 24 hours. Then the inhibition halos observed in each well were measured and gathered in Table 2 below.

Ps. aeruginosa PAO1 [5] = assay: Agar diffusion antibiogram (Example 1); assay type: cell-based, Pseudomonas aeruginosa; conditions: by order of Table 1 Ps. aeruginosa PAO1; concentration 50 μg/ml
Description: as §1, §3

Ps. aeruginosa VIM2 [6] = assay: Agar diffusion antibiogram (Example 1); assay type: cell-based, Pseudomonas aeruginosa; conditions: by order of Table 1 Ps. aeruginosa VIM2; concentration 50 μg/ml
Description: as §1, §3

Ps. aeruginosa OPRD [7] = assay: Agar diffusion antibiogram (Example 1); assay type: cell-based, Pseudomonas aeruginosa; conditions: by order of Table 1 Ps. aeruginosa OPRD; concentration 50 μg/ml
Description: as §1, §3

[8] = tested on: K. pneumoniae ATCC 700603; assay: Agar diffusion antibiogram (Example 1); assay type: cell-based, Klebsiella pneumoniae; conditions: by order of Table 1 K. pneumoniae ATCC 700603; concentration 200 μg/ml
Description: as §1
as §3, with “As a positive control, Penicillin G (at the same concentration) was used. • Incubation of the plates at 37±1° C. for 24 hours.” left out

K. pneumoniae (BLEE+) = assay: Agar diffusion antibiogram (Example 1); assay type: cell-based, Klebsiella pneumoniae; conditions: by order of Table 1 K. pneumoniae BLEE+ clinical isolate; concentration 200 μg/ml
Description: as §1
as §3, with “As a positive control, Penicillin G (at the same concentration) was used. • Incubation of the plates at 37±1° C. for 24 hours.” left out

C. freundii H44 BLEE+ [9] = assay: Agar diffusion antibiogram (Example 1); assay type: cell-based, Citrobacter freundii; conditions: by order of Table 1 C. freundii H44 BLEE+; concentration 50 μg/ml
Description: as §1
as §3, with “As a positive control, Penicillin G (at the same concentration) was used. • Incubation of the plates at 37±1° C. for 24 hours.” left out

C. freundii H44 BLEE+ [10] = assay: Agar diffusion antibiogram (Example 2); assay type: cell-based, Citrobacter freundii; conditions: concentration 50 μg/ml
Description: as §1
as §2, with “As a positive control Penicillin G (at the same concentration) was used. • Incubation of the plates at 3±1° C. for 24 hours.” left out

Ps. aeruginosa DACB = assay: Agar diffusion antibiogram (Example 2); assay type: cell-based, Pseudomonas aeruginosa; conditions: concentration 50 μg/ml
Description: as §1, §2

Ps. aeruginosa MEXR [11] = assay: Agar diffusion antibiogram (Example 2); assay type: cell-based, Pseudomonas aeruginosa; conditions: concentration 50 μg/ml
Description: as §1, §2

Ps. aeruginosa PAO1 [12] = assay: Agar diffusion antibiogram (Example 2); assay type: cell-based, Pseudomonas aeruginosa; conditions: concentration 50 μg/ml
Description: as §1, §2

Ps. aeruginosa VIM2 [13] = assay: Agar diffusion antibiogram (Example 2); assay type: cell-based, Pseudomonas aeruginosa; conditions: concentration 50 μg/ml
Description: as §1, §2

Ps. aeruginosa OPRD [14] = assay: Agar diffusion antibiogram (Example 2); assay type: cell-based, Pseudomonas aeruginosa; conditions: concentration 50 μg/ml
Description: as §1, §2

E. coli C93 BLEE+ [15] = assay: Agar diffusion antibiogram (Example 1); assay type: cell-based, Escherichia coli; conditions: by order of Table 1 E. coli C93 BLEE+; concentration 50 μg/ml
Description: as §1, §3

E. coli H24 BLEE+ [16] = assay: Agar diffusion antibiogram (Example 1); assay type: cell-based, Escherichia coli; conditions: by order of Table 1 E. coli H24 BLEE+; concentration 50 μg/ml
Description: as §1, §3

E. coli not BLEE = assay: Agar diffusion antibiogram (Example 1); assay type: cell-based, Escherichia coli; conditions: concentration 50 μg/ml
Description: as §1, §3

E. coli W207 BLEE+ [17] = assay: Agar diffusion antibiogram (Example 1); assay type: cell-based, Escherichia coli; conditions: by order of Table 1 E. coli W207 BLEE+; concentration 50 μg/ml
Description: as §1, §3

E. coli ATCC 8739 = assay: Agar diffusion antibiogram (Example 1); assay type: cell-based, Escherichia coli; conditions: concentration 50 μg/ml
Description: as §1, §3

[18] = tested on: K. pneumoniae ATCC 700603; assay: Agar diffusion antibiogram (Example 2); assay type: cell-based, Klebsiella pneumoniae; conditions: concentration 200 μg/ml
Description: as §1
as §2, with “As a positive control Penicillin G (at the same concentration) was used. • Incubation of the plates at 3±1° C. for 24 hours.” left out

K. pneumoniae BLEE+ = assay: Agar diffusion antibiogram (Example 2); assay type: cell-based, Klebsiella pneumoniae; conditions: concentration 200 μg/ml
Description: as §1
as §2, with “As a positive control Penicillin G (at the same concentration) was used. • Incubation of the plates at 3±1° C. for 24 hours.” left out

Q: With CC1(C)S[C@@H]2[C@H](NC(=O)Cc3ccccc3)C(=O)N2[C@H]1C(=O)O [PG, penicillin G] as the compound, how does the Inhibition halos (E. coli C93 BLEE+ [1]) read?
A: <1 mm

Q: What about the Inhibition halos (E. coli H24 BLEE+ [2]) of the same compound?
A: <1 mm

Q: What about the Inhibition halos (E. coli W207 BLEE+ [3]) of the same compound?
A: <1 mm

Q: And the Inhibition halos (E. coli AC8 BLEE+)?
A: <1 mm

Q: And the Inhibition halos (Ps. aeruginosa MEXR [4])?
A: <1 mm

Q: What about the Inhibition halos (Ps. aeruginosa PAO1 [5]) of the same compound?
A: <1 mm

Q: What about the Inhibition halos (Ps. aeruginosa VIM2 [6]) of the same compound?
A: <1 mm

Q: What about the Inhibition halos (Ps. aeruginosa OPRD [7]) of the same compound?
A: <1 mm

Q: And the Inhibition halos [8]?
A: <1 mm

Q: And the Inhibition halos (K. pneumoniae (BLEE+))?
A: <1 mm

Q: What about the Inhibition halos (C. freundii H44 BLEE+ [9]) of the same compound?
A: <1 mm

Q: And the Inhibition halos (C. freundii H44 BLEE+ [10])?
A: <1 mm

Q: And the Inhibition halos (Ps. aeruginosa DACB)?
A: 9 mm

Q: What about the Inhibition halos (Ps. aeruginosa MEXR [11]) of the same compound?
A: <1 mm

Q: And the Inhibition halos (Ps. aeruginosa PAO1 [12])?
A: <1 mm

Q: What about the Inhibition halos (Ps. aeruginosa VIM2 [13]) of the same compound?
A: <1 mm

Q: What about the Inhibition halos (Ps. aeruginosa OPRD [14]) of the same compound?
A: <1 mm

Q: What about the Inhibition halos (E. coli C93 BLEE+ [15]) of the same compound?
A: <1 mm

Q: And the Inhibition halos (E. coli H24 BLEE+ [16])?
A: <1 mm

Q: And the Inhibition halos (E. coli not BLEE)?
A: 21 mm

Q: And the Inhibition halos (E. coli W207 BLEE+ [17])?
A: <1 mm

Q: And the Inhibition halos (E. coli ATCC 8739)?
A: 21 mm

Q: And the Inhibition halos [18]?
A: <1 mm

Q: And the Inhibition halos (K. pneumoniae BLEE+)?
A: <1 mm
